{"source": "ChEMBL document CHEMBL6096638", "about": "“Design, synthesis and biological evaluation of novel TMPRSS2-PROTACs with florosubstituted 4-guanidino-N-phenylbenzamide derivative ligands” (Bioorg Med Chem, 2024)", "key": {"[1]": {"tested_on": "DU-145", "assay": "Antiproliferative activity against human DU-145 cells assessed as inhibition of cell growth incubated for 48 hrs by CCK-8 assay", "format": "functional, cell-based", "conditions": "DU-145, 48 h"}, "[2]": {"tested_on": "MCF7", "assay": "Antiproliferative activity against human MCF7 cells assessed as inhibition of cell growth incubated for 48 hrs by CCK-8 assay", "format": "functional, cell-based", "conditions": "MCF7, 48 h"}, "[3]": {"tested_on": "HT-29", "assay": "Induction of apoptosis in human HT-29 cells assessed as viable cells at 0.8 uM incubated for 48 hrs by Annexin V-FITC/PI staining based flow cytometric analysis (reference value: 90.4 %)", "format": "functional", "conditions": "read-out: Activity"}, "[4]": {"tested_on": "DU-145", "assay": "Antiproliferative activity against human DU-145 cells assessed as inhibition of cell growth at 20 uM incubated for 48 hrs by CCK-8 assay relative to control", "format": "functional"}, "[5]": {"tested_on": "HT-29", "assay": "Induction of apoptosis in human HT-29 cells assessed as late apoptotic cells at 0.4 uM incubated for 48 hrs by Annexin V-FITC/PI staining based flow cytometric analysis (reference value: 5.87 %)", "format": "functional"}, "[6]": {"tested_on": "HT-29", "assay": "Induction of apoptosis in human HT-29 cells assessed as early apoptotic cells at 0.2 uM incubated for 48 hrs by Annexin V-FITC/PI staining based flow cytometric analysis (reference value: 1.22 %)", "format": "functional"}, "[7]": {"tested_on": "K562", "assay": "Antiproliferative activity against human K562 cells assessed as inhibition of cell growth incubated for 48 hrs by CCK-8 assay", "format": "functional, cell-based", "conditions": "K562, 48 h"}, "[8]": {"tested_on": "Calu-3", "assay": "Antiproliferative activity against human Calu-3 cells assessed as inhibition of cell growth at 20 uM incubated for 48 hrs by CCK-8 assay relative to control", "format": "functional"}, "[9]": {"tested_on": "NCI-H1299", "assay": "Antiproliferative activity against human NCI-H1299 cells assessed as inhibition of cell growth incubated for 48 hrs by CCK-8 assay", "format": "functional, cell-based", "conditions": "NCI-H1299, 48 h"}, "[10]": {"tested_on": "HT-29", "assay": "Inhibition of cell migration in human HT-29 cells at 0.2 to 0.8 uM incubated for 48 hrs by wound healing assay", "format": "functional, cell-based", "conditions": "dose 0.2-0.8 µM"}, "[11]": {"biological_target": "von Hippel-Lindau disease tumor suppressor/Transmembrane protease serine 2 (Homo sapiens) (UniProt O15393+P40337)", "sequence (O15393 whole entry, looked up)": "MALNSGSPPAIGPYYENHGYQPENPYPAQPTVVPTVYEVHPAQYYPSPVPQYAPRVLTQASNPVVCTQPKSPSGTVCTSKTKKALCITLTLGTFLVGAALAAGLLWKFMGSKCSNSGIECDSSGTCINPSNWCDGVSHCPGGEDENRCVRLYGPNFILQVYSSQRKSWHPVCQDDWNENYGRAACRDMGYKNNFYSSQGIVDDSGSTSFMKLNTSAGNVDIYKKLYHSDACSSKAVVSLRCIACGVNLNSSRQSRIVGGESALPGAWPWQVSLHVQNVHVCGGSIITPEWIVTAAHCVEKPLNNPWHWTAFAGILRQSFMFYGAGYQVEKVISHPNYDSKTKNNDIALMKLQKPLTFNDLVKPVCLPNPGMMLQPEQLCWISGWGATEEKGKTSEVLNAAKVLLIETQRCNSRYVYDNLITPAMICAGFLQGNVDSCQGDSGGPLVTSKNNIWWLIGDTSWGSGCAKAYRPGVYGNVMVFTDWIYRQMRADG", "sequence (P40337 whole entry, looked up)": "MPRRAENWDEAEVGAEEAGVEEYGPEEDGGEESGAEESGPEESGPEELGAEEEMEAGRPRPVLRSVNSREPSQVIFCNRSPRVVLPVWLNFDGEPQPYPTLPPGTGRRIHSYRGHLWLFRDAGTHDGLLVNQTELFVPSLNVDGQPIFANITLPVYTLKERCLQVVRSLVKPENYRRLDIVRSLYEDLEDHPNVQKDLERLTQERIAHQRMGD", "assay": "PROTAC activity at VHL/TMPRSS2 in human HT-29 cells assessed as induction of TMPRSS2 degradation at 2.5 uM incubated for 24 hrs by Western blotting analysis", "format": "cell-based"}, "[12]": {"tested_on": "HT-29", "assay": "Antiproliferative activity against human HT-29 cells assessed as inhibition of cell growth incubated for 48 hrs by CCK-8 assay", "format": "functional, cell-based", "conditions": "HT-29, 48 h"}, "[13]": {"tested_on": "HepG2", "assay": "Antiproliferative activity against human HepG2 cells assessed as inhibition of cell growth incubated for 48 hrs by CCK-8 assay", "format": "functional, cell-based", "conditions": "HepG2, 48 h"}, "[14]": {"tested_on": "MRC5", "assay": "Antiproliferative activity against human MRC5 cells assessed as inhibition of cell growth incubated for 48 hrs by CCK-8 assay", "format": "functional, cell-based", "conditions": "MRC5, 48 h"}, "[15]": {"tested_on": "AGS", "assay": "Antiproliferative activity against human AGS cells assessed as inhibition of cell growth incubated for 48 hrs by CCK-8 assay", "format": "functional, cell-based"}, "[16]": {"tested_on": "PC-3", "assay": "Antiproliferative activity against human PC-3 cells assessed as inhibition of cell growth incubated for 48 hrs by CCK-8 assay", "format": "functional, cell-based", "conditions": "PC-3, 48 h"}, "[17]": {"tested_on": "HT-29", "assay": "Induction of apoptosis in human HT-29 cells assessed as viable cells at 0.4 uM incubated for 48 hrs by Annexin V-FITC/PI staining based flow cytometric analysis (reference value: 90.4 %)", "format": "functional", "conditions": "read-out: Activity"}, "[18]": {"tested_on": "SK-N-AS", "assay": "Antiproliferative activity against human SK-N-AS cells assessed as inhibition of cell growth incubated for 48 hrs by CCK-8 assay", "format": "functional, cell-based"}, "[19]": {"tested_on": "HT-29", "assay": "Antiproliferative activity against human HT-29 cells assessed as inhibition of cell growth at 20 uM incubated for 48 hrs by CCK-8 assay relative to control", "format": "functional"}, "[20]": {"tested_on": "HT-29", "assay": "Induction of apoptosis in human HT-29 cells assessed as early apoptotic cells at 0.4 uM incubated for 48 hrs by Annexin V-FITC/PI staining based flow cytometric analysis (reference value: 1.22 %)", "format": "functional"}, "[21]": {"tested_on": "HT-29", "assay": "Induction of apoptosis in human HT-29 cells assessed as early apoptotic cells at 0.8 uM incubated for 48 hrs by Annexin V-FITC/PI staining based flow cytometric analysis (reference value: 1.22 %)", "format": "functional"}, "[22]": {"tested_on": "HT-29", "assay": "Inhibition of colony formation in human HT-29 cells incubated for 24 hrs by crystal violet staining based analysis", "format": "functional, cell-based", "conditions": "dose 0.1-0.4 µM"}, "[23]": {"tested_on": "SH-SY5Y", "assay": "Antiproliferative activity against human SH-SY5Y cells assessed as inhibition of cell growth incubated for 48 hrs by CCK-8 assay", "format": "functional, cell-based"}, "[24]": {"tested_on": "HT-29", "assay": "Induction of apoptosis in human HT-29 cells assessed as necrotic cells at 0.4 uM incubated for 48 hrs by Annexin V-FITC/PI staining based flow cytometric analysis (reference value: 2.48 %)", "format": "functional"}, "[25]": {"tested_on": "786-0", "assay": "Antiproliferative activity against human 786-0 cells assessed as inhibition of cell growth incubated for 48 hrs by CCK-8 assay", "format": "functional, cell-based", "conditions": "786-0, 48 h"}, "[26]": {"tested_on": "CWR22R", "assay": "Antiproliferative activity against human 22Rv1 cells assessed as inhibition of cell growth incubated for 48 hrs by CCK-8 assay", "format": "functional, cell-based", "conditions": "22Rv1, 48 h"}, "[27]": {"tested_on": "HT-29", "assay": "Induction of apoptosis in human HT-29 cells assessed as late apoptotic cells at 0.8 uM incubated for 48 hrs by Annexin V-FITC/PI staining based flow cytometric analysis (reference value: 5.87 %)", "format": "functional"}, "[28]": {"tested_on": "A-375", "assay": "Antiproliferative activity against human A-375 cells assessed as inhibition of cell growth incubated for 48 hrs by CCK-8 assay", "format": "functional, cell-based", "conditions": "A-375, 48 h"}, "[29]": {"tested_on": "MDA-MB-231", "assay": "Antiproliferative activity against human MDA-MB-231 cells assessed as inhibition of cell growth incubated for 48 hrs by CCK-8 assay", "format": "functional, cell-based", "conditions": "MDA-MB-231, 48 h"}, "[30]": {"tested_on": "Calu-3", "assay": "Antiproliferative activity against human Calu-3 cells assessed as inhibition of cell growth incubated for 48 hrs by CCK-8 assay", "format": "functional, cell-based", "conditions": "Calu-3, 48 h"}, "[31]": {"tested_on": "HT-29", "assay": "Induction of apoptosis in human HT-29 cells assessed as viable cells at 0.2 uM incubated for 48 hrs by Annexin V-FITC/PI staining based flow cytometric analysis (reference value: 90.4 %)", "format": "functional", "conditions": "read-out: Activity"}, "[32]": {"tested_on": "A549", "assay": "Antiproliferative activity against human A549 cells assessed as inhibition of cell growth incubated for 48 hrs by CCK-8 assay", "format": "functional, cell-based", "conditions": "A549, 48 h"}, "[33]": {"tested_on": "HT-29", "assay": "Induction of apoptosis in human HT-29 cells assessed as necrotic cells at 0.8 uM incubated for 48 hrs by Annexin V-FITC/PI staining based flow cytometric analysis (reference value: 2.48 %)", "format": "functional"}, "[34]": {"tested_on": "HT-29", "assay": "Induction of apoptosis in human HT-29 cells assessed as necrotic cells at 0.2 uM incubated for 48 hrs by Annexin V-FITC/PI staining based flow cytometric analysis (reference value: 2.48 %)", "format": "functional"}, "[35]": {"tested_on": "HT-29", "assay": "Induction of cell cycle arrest in human HT-29 cells assessed as accumulation of cells at G2 phase at 0.8 uM incubated for 36 hrs by PI-staining based flow cytometry", "format": "functional"}, "[36]": {"tested_on": "HT-29", "assay": "Induction of apoptosis in human HT-29 cells assessed as late apoptotic cells at 0.2 uM incubated for 48 hrs by Annexin V-FITC/PI staining based flow cytometric analysis (reference value: 5.87 %)", "format": "functional"}, "[37]": {"tested_on": "VCaP", "assay": "Antiproliferative activity against human VCaP cells assessed as inhibition of cell growth incubated for 48 hrs by CCK-8 assay", "format": "functional, cell-based"}}, "note": "Calls of active or inactive are those of the source. The calls are words filed in the database; no cut-off is given here.", "data": [{"compound": "Cc1ncsc1-c1ccc([C@H](C)NC(=O)[C@@H]2C[C@@H](O)CN2C(=O)[C@@H](NC(=O)CN2CCC(CN3CCN(c4ccc(NC(=O)c5cc(F)c(NC(=N)N)cc5F)cc4)CC3)CC2)C(C)(C)C)cc1.Cl", "values": [{"measurement": "IC50", "setting": "[1]", "value": 5.26, "unit": "µM"}, {"measurement": "IC50", "setting": "[2]", "value": 13.3, "unit": "µM"}, {"measurement": "viability at 0.8 µM", "setting": "[3]", "value": 58.5, "unit": "%"}, {"measurement": "inhibition at 20 µM", "setting": "[4]", "value": 74.6, "unit": "%"}, {"measurement": "Activity", "setting": "[5]", "value": 11.6, "unit": "%"}, {"measurement": "Activity", "setting": "[6]", "value": 1.58, "unit": "%"}, {"measurement": "IC50", "setting": "[7]", "value": 9.01, "unit": "µM"}, {"measurement": "inhibition at 20 µM", "setting": "[8]", "value": 96.1, "unit": "%"}, {"measurement": "IC50", "setting": "[9]", "value": "> 40", "unit": "µM"}, {"measurement": "Activity", "setting": "[10]", "value": "Active"}, {"measurement": "Activity", "setting": "[11]", "value": "Active"}, {"measurement": "IC50", "setting": "[12]", "value": 0.39, "unit": "µM"}, {"measurement": "IC50", "setting": "[13]", "value": 8.73, "unit": "µM"}, {"measurement": "IC50", "setting": "[14]", "value": "> 40", "unit": "µM"}, {"measurement": "IC50", "setting": "[15]", "value": 14.9, "unit": "µM"}, {"measurement": "IC50", "setting": "[16]", "value": 24.5, "unit": "µM"}, {"measurement": "viability at 0.4 µM", "setting": "[17]", "value": 80.4, "unit": "%"}, {"measurement": "IC50", "setting": "[18]", "value": 6.91, "unit": "µM"}, {"measurement": "inhibition at 20 µM", "setting": "[19]", "value": 94.6, "unit": "%"}, {"measurement": "Activity", "setting": "[20]", "value": 3.74, "unit": "%"}, {"measurement": "Activity", "setting": "[21]", "value": 15.3, "unit": "%"}, {"measurement": "inhibition", "setting": "[22]", "value": "Dose-dependent-effect"}, {"measurement": "IC50", "setting": "[23]", "value": 18, "unit": "µM"}, {"measurement": "Activity", "setting": "[24]", "value": 4.21, "unit": "%"}, {"measurement": "IC50", "setting": "[25]", "value": 34.8, "unit": "µM"}, {"measurement": "IC50", "setting": "[26]", "value": 20, "unit": "µM"}, {"measurement": "Activity", "setting": "[27]", "value": 23.2, "unit": "%"}, {"measurement": "IC50", "setting": "[28]", "value": 9.63, "unit": "µM"}, {"measurement": "IC50", "setting": "[29]", "value": 10.7, "unit": "µM"}, {"measurement": "IC50", "setting": "[30]", "value": 1.62, "unit": "µM"}, {"measurement": "viability at 0.2 µM", "setting": "[31]", "value": 78.8, "unit": "%"}, {"measurement": "IC50", "setting": "[32]", "value": 12.3, "unit": "µM"}, {"measurement": "Activity", "setting": "[33]", "value": 3.01, "unit": "%"}, {"measurement": "Activity", "setting": "[34]", "value": 6.59, "unit": "%"}, {"measurement": "Activity", "setting": "[35]", "value": "Active"}, {"measurement": "Activity", "setting": "[36]", "value": 13, "unit": "%"}, {"measurement": "IC50", "setting": "[37]", "value": 7.57, "unit": "µM"}]}]}
